According to ChEMBL document CHEMBL3779859, “Synergistic activity of a short lipidated antimicrobial peptide (lipoAMP) and colistin or tobramycin against Pseudomonas aeruginosa from cystic fibrosis patients” (Medchemcomm, 2016):
In brackets after ≈: the same amount, converted by molar mass. Activity calls are given as the source filed them. The calls are words filed in the database; no cut-off is given here. Peptide text beside a SMILES is read from it. * marks the point of attachment. Decanoyl = CCCCCCCCCC(=O)*

Key:
[1] = system: Pseudomonas aeruginosa; assay: Antibacterial activity against Pseudomonas aeruginosa KD491 clinical isolate after 18 to 22 hrs by checkerboard method in presence of colistin; format: functional
[2] = system: Pseudomonas aeruginosa; assay: Antibacterial activity against Pseudomonas aeruginosa KD491 clinical isolate after 18 to 22 hrs by checkerboard method in presence of tobramycin; format: functional
[3] = system: Pseudomonas aeruginosa; assay: Antibacterial activity against Pseudomonas aeruginosa LESB58 clinical isolate after 18 to 22 hrs by checkerboard method in presence of tobramycin; format: functional
[4] = system: Pseudomonas aeruginosa; assay: Antibacterial activity against Pseudomonas aeruginosa PAO1 clinical isolate after 18 to 22 hrs by checkerboard method in presence of colistin; format: functional
[5] = system: Pseudomonas aeruginosa; assay: Antibacterial activity against Pseudomonas aeruginosa Clone C clinical isolate after 18 to 22 hrs by checkerboard method in presence of colistin; format: functional
[6] = system: Pseudomonas aeruginosa; assay: Antibacterial activity against Pseudomonas aeruginosa Clone C clinical isolate after 18 to 22 hrs by checkerboard method in presence of tobramycin; format: functional
[7] = system: Pseudomonas aeruginosa; assay: Antibacterial activity against Pseudomonas aeruginosa PAO1 clinical isolate assessed as growth inhibition at 4 ug/ml measured every 15 mins by microtiter plate reader method in presence of 1 ug/ml colistin; format: functional, organism-based
[8] = system: Pseudomonas aeruginosa; assay: Antibacterial activity against Pseudomonas aeruginosa Clone C clinical isolate assessed as growth inhibition at 8 ug/ml measured every 15 mins by microtiter plate reader method in presence of […] ug/ml colistin; format: functional, organism-based
[9] = system: Pseudomonas aeruginosa; assay: Antibacterial activity against Pseudomonas aeruginosa KD491 clinical isolate assessed as growth inhibition at 8 ug/ml measured every 15 mins by microtiter plate reader method in presence of 1 ug/ml tobramycin; format: functional, organism-based
[10] = system: Pseudomonas aeruginosa; assay: Antibacterial activity against Pseudomonas aeruginosa PAO1 clinical isolate assessed as growth inhibition at 32 ug/ml measured every 15 mins by microtiter plate reader method in presence of […] ug/ml tobramycin; format: functional, organism-based
[11] = system: Pseudomonas aeruginosa; assay: Antibacterial activity against Pseudomonas aeruginosa Clone C clinical isolate assessed as growth inhibition at 16 ug/ml measured every 15 mins by microtiter plate reader method in presence of […] ug/ml tobramycin; format: functional, organism-based
[12] = system: Pseudomonas aeruginosa; assay: Antibacterial activity against Pseudomonas aeruginosa KD491 clinical isolate assessed as inhibition of biofilm formation at 32 ug/ml after 18 to 22 hrs by crystal violet staining-based polystyrene microtiter plate reader method; format: functional
[13] = system: Pseudomonas aeruginosa; assay: Antibacterial activity against Pseudomonas aeruginosa KD491 clinical isolate assessed as inhibition of biofilm formation at 2 ug/ml after 18 to 22 hrs by crystal violet staining-based polystyrene microtiter plate reader method; format: functional
[14] = system: Pseudomonas aeruginosa; assay: Antibacterial activity against Pseudomonas aeruginosa KD491 clinical isolate assessed as inhibition of biofilm formation at 4 ug/ml after 18 to 22 hrs by crystal violet staining-based polystyrene microtiter plate reader method; format: functional
[15] = system: Pseudomonas aeruginosa; assay: Antibacterial activity against Pseudomonas aeruginosa PAO1 clinical isolate assessed as inhibition of biofilm formation at 64 ug/ml after 18 to 22 hrs by crystal violet staining-based polystyrene microtiter plate reader method; format: functional
[16] = system: Pseudomonas aeruginosa; assay: Antibacterial activity against Pseudomonas aeruginosa PAO1 clinical isolate assessed as inhibition of biofilm formation at 32 ug/ml after 18 to 22 hrs by crystal violet staining-based polystyrene microtiter plate reader method in presence of 2 ug/ml colistin; format: functional
[17] = system: Pseudomonas aeruginosa; assay: Antibacterial activity against Pseudomonas aeruginosa Clone C clinical isolate assessed as inhibition of biofilm formation at 32 ug/ml after 18 to 22 hrs by crystal violet staining-based polystyrene microtiter plate reader method in presence of 2 ug/ml colistin; format: functional
[18] = system: Pseudomonas aeruginosa; assay: Antibacterial activity against Pseudomonas aeruginosa Clone C clinical isolate assessed as inhibition of biofilm formation at 32 ug/ml after 18 to 22 hrs by crystal violet staining-based polystyrene microtiter plate reader method in absence of colistin; format: functional, organism-based
[19] = system: Pseudomonas aeruginosa; assay: Antibacterial activity against Pseudomonas aeruginosa PAO1 clinical isolate assessed as delay in growth at 4 to 32 ug/ml measured every 15 mins by microtiter plate reader method; format: functional, organism-based
[20] = system: Pseudomonas aeruginosa; assay: Antibacterial activity against Pseudomonas aeruginosa Clone C clinical isolate assessed as delay in growth at 8 to 16 ug/ml measured every 15 mins by microtiter plate reader method; format: functional, organism-based
[21] = system: Pseudomonas aeruginosa; assay: Antibacterial activity against Pseudomonas aeruginosa LESB58 clinical isolate assessed as delay in growth rate in exponential phase of bacterial growth curve at 4 to 32 ug/ml measured every 15 mins by microtiter plate reader method; format: functional, organism-based
[22] = system: Pseudomonas aeruginosa; assay: Antibacterial activity against Pseudomonas aeruginosa PAO1 clinical isolate assessed as inhibition of biofilm formation at 4 ug/ml after 18 to 22 hrs by crystal violet staining-based polystyrene microtiter plate reader method in presence of 0.5 ug/ml tobramycin; format: functional, organism-based
[23] = system: Pseudomonas aeruginosa; assay: Antibacterial activity against Pseudomonas aeruginosa PAO1 clinical isolate assessed as inhibition of biofilm formation at 32 ug/ml after 18 to 22 hrs by crystal violet staining-based polystyrene microtiter plate reader method in presence of 2 ug/ml tobramycin; format: functional, organism-based
[24] = Hemolytic activity in erythrocytes (unknown origin) at 250 ug/ml; format: ADME, cell-based, Erythrocyte; details: read-out: Activity
[25] = Hemolytic activity in erythrocytes (unknown origin) at 32 ug/ml; format: ADME, cell-based, Erythrocyte; details: read-out: Activity
[26] = system: Pseudomonas aeruginosa; assay: Antibacterial activity against Pseudomonas aeruginosa LES431 clinical isolate after 16 to 20 hrs by microdilution assay; format: functional
[27] = system: Pseudomonas aeruginosa; assay: Antibacterial activity against Pseudomonas aeruginosa KD491 clinical isolate after 16 to 20 hrs by microdilution assay; format: functional
[28] = system: Pseudomonas aeruginosa; assay: Antibacterial activity against Pseudomonas aeruginosa D599 clinical isolate after 16 to 20 hrs by microdilution assay; format: functional
[29] = system: Pseudomonas aeruginosa; assay: Antibacterial activity against Pseudomonas aeruginosa PAO1 clinical isolate after 16 to 20 hrs by microdilution assay; format: functional
[30] = system: Pseudomonas aeruginosa; assay: Antibacterial activity against Pseudomonas aeruginosa Clone C clinical isolate after 16 to 20 hrs by microdilution assay; format: functional
[31] = system: Pseudomonas aeruginosa; assay: Antibacterial activity against Pseudomonas aeruginosa VW1501 clinical isolate after 16 to 20 hrs by microdilution assay; format: functional
[32] = system: Pseudomonas aeruginosa; assay: Antibacterial activity against Pseudomonas aeruginosa VW1540 clinical isolate after 16 to 20 hrs by microdilution assay; format: functional
[33] = system: Pseudomonas aeruginosa; assay: Antibacterial activity against Pseudomonas aeruginosa VW178 clinical isolate after 16 to 20 hrs by microdilution assay; format: functional
[34] = system: Pseudomonas aeruginosa; assay: Antibacterial activity against Pseudomonas aeruginosa KD491 clinical isolate assessed as delay in growth rate in exponential phase of bacterial growth curve at 4 to 8 ug/ml measured every 15 mins by microtiter plate reader method; format: functional, organism-based
[35] = system: Pseudomonas aeruginosa; assay: Antibacterial activity against Pseudomonas aeruginosa VW1485 clinical isolate after 16 to 20 hrs by microdilution assay; format: functional
[36] = system: Pseudomonas aeruginosa; assay: Antibacterial activity against Pseudomonas aeruginosa VW0247 clinical isolate after 16 to 20 hrs by microdilution assay; format: functional
[37] = system: Pseudomonas aeruginosa; assay: Antibacterial activity against Pseudomonas aeruginosa kl 3.2 clinical isolate after 16 to 20 hrs by microdilution assay; format: functional
[38] = system: Pseudomonas aeruginosa; assay: Antibacterial activity against Pseudomonas aeruginosa VW1538 clinical isolate after 16 to 20 hrs by microdilution assay; format: functional
[39] = system: Pseudomonas aeruginosa; assay: Antibacterial activity against Pseudomonas aeruginosa MIDLANDS clinical isolate after 16 to 20 hrs by microdilution assay; format: functional
[40] = system: Pseudomonas aeruginosa; assay: Antibacterial activity against Pseudomonas aeruginosa VW1471 clinical isolate after 16 to 20 hrs by microdilution assay; format: functional
[41] = system: Pseudomonas aeruginosa; assay: Antibacterial activity against Pseudomonas aeruginosa LESB58 clinical isolate after 16 to 20 hrs by microdilution assay; format: functional

For `CCCCCCCCCC(=O)NCCCC[C@H](NC(=O)[C@H](Cc1c[nH]c2ccccc12)NC(=O)[C@H](CCCNC(=N)N)NC(=O)[C@H](Cc1c[nH]c2ccccc12)NC(=O)[C@H](CCCNC(=N)N)NC(=O)[C@H](Cc1c[nH]c2ccccc12)NC(=O)[C@@H](N)CCCNC(=N)N)C(=O)O` (H-RWRWRWK(Decanoyl)-OH), the “fractional inhibitory concentration index (FICI)” value [1] was 0.2625, the “fractional inhibitory concentration index (FICI)” value [2] was 0.375 and the “fractional inhibitory concentration index (FICI)” value [3] was 0.5. For the same molecule, the “fractional inhibitory concentration index (FICI)” value [4] was 0.3125, the “fractional inhibitory concentration index (FICI)” value [5] was 0.5 and the “fractional inhibitory concentration index (FICI)” value [6] was 0.5. For the same molecule, the “growth inhibition (GI)” value [7] was “Active”, the “growth inhibition (GI)” value [8] was “Active” and the “growth inhibition (GI)” value [9] was “Active”. The “growth inhibition (GI)” value [10] was “Active”, the “growth inhibition (GI)” value [11] was “Active” and the inhibition at 32 µg/mL [12] was 80%. It also gave an inhibition at 2 µg/mL [13] of 45%, an inhibition at 4 µg/mL [14] of 52% and an inhibition at 64 µg/mL [15] of 81%. For the same molecule, the “inhibition (INH)” value [16] was 84%, the “inhibition (INH)” value [17] was 70% and the inhibition [18] was “inactive”. For the same molecule, the Activity [19] was “Active”, the Activity [20] was “Active” and the Activity [21] was “Active”. For the same molecule, the inhibition [22] was “inactive”, the inhibition [23] was “inactive” and the hemolysis at 250 ug/ml [24] was 50%. The hemolysis at 32 ug/ml [25] was < 10%, the MIC [26] was 32 µg/mL (≈ 24.1 µM) and the MIC [27] was 16 µg/mL (≈ 12.1 µM). The MIC [28] was 128 µg/mL (≈ 96.4 µM), the MIC [29] was 256 µg/mL (≈ 193 µM) and the MIC [30] was 128 µg/mL (≈ 96.4 µM). For the same molecule, the MIC [31] was 128 µg/mL (≈ 96.4 µM), the MIC [32] was 64 µg/mL (≈ 48.2 µM) and the MIC [33] was 32 µg/mL (≈ 24.1 µM). The Activity [34] was “Active”, the MIC [35] was 256 µg/mL (≈ 193 µM) and the MIC [36] was 64 µg/mL (≈ 48.2 µM). It also gave an MIC [37] of 128 µg/mL (≈ 96.4 µM), an MIC [38] of 64 µg/mL (≈ 48.2 µM) and an MIC [39] of 64 µg/mL (≈ 48.2 µM). The MIC [40] was 64 µg/mL (≈ 48.2 µM) and the MIC [41] was 128 µg/mL (≈ 96.4 µM).
